One compound from patent US8513220B2, “Aromatic compounds having sphingosine-1-phosphonate (S1P) receptor activity” (Allergan, Inc., priority 2010, dated 2013) can be followed below.

In one test the target is T1, human S1P1 receptor (Homo sapiens, UniProt P21453).
T1 construct: expressed in transfected cells; membranes used
Put plainly: GTP γ35S binding assay for S1P1 activity. The class given is biochemical. As for the experimental part: Novel compounds were synthesized and tested for S1P1 activity using the GTP γ^35S binding assay. These compounds may be assessed for their ability to activate or block activation of the human S1P1 receptor in cells stably expressing the S1P1 receptor. GTP γ^35S binding was measured in the medium containing (mM) HEPES 25, pH 7.4, MgCl2 10, NaCl 100, dithitothreitol 0.5, digitonin 0.003%, 0.2 nM GTP γ^35S, and 5 μg membrane protein in a volume of 150 μl. Test compounds were included in the concentration range from 0.08 to 5,000 nM unless indicated otherwise. Membranes were incubated with 100 μM 5′-adenylylimmidodiphosphate for 30 min, and subsequently with 10 μM GDP for 10 min on ice. Drug solutions and membrane were mixed, and then reactions were initiated by adding GTP γ^35S and continued for 30 min at 25° C. Reaction mixtures were filtered over Whatman GF/B filters under vacuum, and washed three times with 3 mL of ice-cold buffer (HEPES 25, pH7.4, MgCl2 10 and NaCl 100). Filters were dried and mixed with scintillant, and counted for ^35S activity using a […]. Agonist-induced GTP γ^35S binding was obtained by subtracting that in the absence of agonist. Binding data were analyzed using a non-linear regression method. In case of antagonist assay, the reaction mixture contained 10 nM S1P in the presence of test antagonist at concentrations ranging from 0.08 to 5000 nM.
Activity potency: S1P1 receptor from GTP γ^35S: nM, (EC50)

For the next test, the system named is lymphocytes in blood. Put plainly: Lymphopenia assay in mice (in vivo blood lymphocyte depletion). The note with it: female C57BL6 mice, 10 mg/Kg subcutaneous, after 48 h of drug application. As for the experimental part:
Test drugs are prepared in a solution containing 3% (w/v) 2-hydroxy propyl β-cyclodextrin (HPBCD) and 1% DMSO to a final concentration of 1 mg/ml, and subcutaneously injected to female C57BL6 mice (CHARLES RIVERS) weighing 20-25 g at the dose of 10 mg/Kg. Blood samples are obtained by puncturing the submandibular skin with a Goldenrod animal lancet at 5, 24, 48, 72, and 96 hrs post drug application. Blood is collected into microvettes (SARSTEDT) containing EDTA tripotassium salt. Lymphocytes in blood samples are counted using a HEMAVET Multispecies Hematology System, HEMAVET HV950FS (Drew Scientific Inc.). (Hale, J. et al Bioorg. & Med. Chem. Lett. 14 (2004) 3351).
A lymphopenia assay in mice; as previously described, was employed to measure the in vivo blood lymphocyte depletion after dosing with: • (3-{[5-(4-Hexyl-phenyl)-6-thiophen-2-yl-pyridin-2-ylmethyl]-amino}-propyl)-phosphonic acid, Compound 2 (FIG. 1); • (3-{[6-(5-Fluoro-thiophen-2-yl)-5-(4-hexyl-phenyl)-pyridin-2-ylmethyl]-amino}-propyl)-phosphonic acid, Compound 3 (FIG. 2); • (3-{[5-(4-Hexyl-3-propyl-phenyl)-6-thiophen-2-yl-pyridin-2-ylmethyl]-amino}-propyl)-phosphonic acid, Compound 4 (FIG. 3); • [3-({5-[4-(3-Phenyl-propyl)-phenyl]-6-thiophen-2-yl-pyridin-2-ylmethyl}-amino)-propyl]-phosphonic acid, Compound 5 (FIG. 4); • (3-{[5-(4-Hexyl-phenyl)-6-thiophen-3-yl-pyridin-2-ylmethyl]-amino}-propyl)-phosphonic acid, Compound 6 (FIG. 5); • (3-{[5-(4-Hexyl-phenyl)-6-oxazol-4-yl-pyridin-2-ylmethyl]-amino}-propyl)-phosphonic acid, Compound 7 (FIG. 6); • (3-{[6-Furan-2-yl-5-(4-hexyl-phenyl)-pyridin-2-ylmethyl]-amino}-propyl)-phosphonic acid, Compound 9 (FIG. 7); • [3-({6-Phenyl-5-[4-(3-phenyl-propyl)-phenyl]-pyridin-2-ylmethyl}-amino)-propyl]-phosphonic acid, Compound 14 (FIGS. 8) and • (3-{[5-(4-Hexyl-3-propyl-phenyl)-6-phenyl-pyridin-2-ylmethyl]-amino}-propyl)-phosphonic acid, Compound 16 (FIG. 9).
These S1P agonist (or modulator) is useful for S1P-related diseases, and exemplified by the lymphopenia in vivo response. In general, test drugs Compound 3 and 16 were prepared in a solution containing 3% (w/v) 2-hydroxy propyl β-cyclodextrin (HPBCD) and 1% DMSO to a final concentration of 1 mg/ml, and subcutaneously injected to female C57BL6 mice (CHARLES RIVERS) weighing 20-25 g at the dose of 10 mg/Kg. Blood samples were obtained by puncturing the submandibular skin with a Goldenrod animal lancet at 5, 24, 48, and 72 hrs post drug application. Blood was collected into microvettes (SARSTEDT) containing EDTA tripotassium salt. Lymphocytes in blood samples were counted using a HEMAVET Multispecies Hematology System, HEMAVET HV950FS (Drew Scientific Inc.). Results are shown in the following figures below that depict lowered lymphocyte count after 5 hours (<1 number of lymphocytes 10^3/μL blood).

T1 sequence (P21453 whole entry): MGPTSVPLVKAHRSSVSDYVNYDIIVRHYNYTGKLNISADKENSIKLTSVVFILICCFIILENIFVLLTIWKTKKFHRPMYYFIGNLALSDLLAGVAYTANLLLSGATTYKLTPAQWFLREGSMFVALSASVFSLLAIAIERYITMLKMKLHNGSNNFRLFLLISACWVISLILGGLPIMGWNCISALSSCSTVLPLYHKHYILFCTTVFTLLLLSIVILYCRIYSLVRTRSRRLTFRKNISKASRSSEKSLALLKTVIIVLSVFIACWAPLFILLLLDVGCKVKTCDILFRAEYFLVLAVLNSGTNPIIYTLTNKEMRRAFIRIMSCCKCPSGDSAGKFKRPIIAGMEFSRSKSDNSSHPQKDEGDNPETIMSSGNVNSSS

For orientation: EC50 means the concentration at which the effect is half-maximal. For the compound `O=P(O)(O)CCCNCc1ccc(-c2ccc(CCCc3ccccc3)cc2)c(-c2cccs2)n1` [Compound 5, [3-({5-[4-(3-Phenyl-propyl)-phenyl]-6-thiophen-2-yl-pyridin-2-ylmethyl}-amino)-propyl]-phosphonic acid], at human S1P1 receptor (S1P1 receptor GTPγ^35S, 5 μM, read-out: % STIMULATION @ 5 μM), the activation at 5 µM came to 91.1%. Moreover, the EC50 on human S1P1 receptor (S1P1 receptor, membranes, compounds 0.08 to 5,000 nM, read-out: GTPγ^35S EC50) was found to be 2.36 nM. For the same compound, the “number of lymphocytes found in the blood” value in the test on lymphocytes in blood is “reduced”.
